Measurements from US3994981A, “Derivatives of certain geranyl phenyl ethers” (Stauffer Chemical Company, priority 1973, dated 1976).

System: yellow mealworm, Tenebrio molitor, L.
Experiment: Insecticidal evaluation test: hindering metamorphosis of insects (Tenebrio molitor pupae, topical application)
Type: in vivo
Conditions: applied in acetone to the venter of pupae 1-25 hours old; 28° C., 40% humidity; graded at adult emergence (6-8 days); average of 2 groups of 20 pupae
Procedure: The degree of activity of a candidate compound to hinder or impede the metamorphosis of insects is measured by treating the penultimate larval stage of a representative insect with the compound and examining it after its last molt toward the adult form for retention of immature features.
Specifically, yellow mealworm, Tenebrio molitor, L., larvae are maintained at 28° C. and 40% humidity on a diet of bran flakes. Prepupae care collected from the culture and kept in separate containers. The pupae collected once daily, are 1-25 hours old at the time of treatment. By means of a syringe, suitable amounts of candidate compounds in […] of acetone are applied to the ventor of Tenebrio molitor, L. pupae. Treated pupae are maintained at 28° C. and 40% humidity until the adults emerged (usually within 6-8 days). Emerged adults are graded as positive, negative, or dead. To be considered a positive response, the presence of typical pupal cuticle, urogomphi, gin trap, and abnormal wings, etc., are required. For each test, 2 groups of 20 pupae were used and the averaged results were reported.
The dose of a candidate compound per pupa that is needed to kill or give a positive response in the above insecticidal evaluation test for 10 of the 20 pupae is determined.

Compound	ED50: dose per pupa needed to kill or give a positive response for 10 of the 20 pupae [μg/pupa]
C=C(C)C(Cl)CCC(C)=CCOc1ccc(SC)cc1 (stereo not shown) [Compound 1]	0.3
C=C(C)C(Cl)CCC(C)=CCOc1ccc(CC)cc1 (stereo not shown) [Compound 2, 1-(4'-ethyl) phenoxy-3,7-dimethyl-6-chloro-2,7-octadiene]	0.1
C=C(C)C(Br)CCC(C)=CCOc1ccc(CC)cc1 (stereo not shown) [Compound 3, 1-(4'-ethyl) phenoxy-3,7-dimethyl-6-bromo-2,7-octadiene]	0.5
C=C(C)C(Cl)CCC1(C)OC1COc1ccc(CC)cc1 (stereo not shown) [Compound 24, 3,7-dimethyl-6-chloro-1-p-ethylphenoxy-2,3-epoxy-7-octene]	0.03
